Measured values taken from patent US10874745B2, “Antimicrobial peptides and methods of treating gram-negative pathogens: polar and non-polar face analogs” (priority 2017, dated 2020).
≈ marks a conversion by molar mass, not a printed value. Where “and” joins values, the source holds several entries; their conditions need not be identical. Equal entries are not always repeated. Where two headings read alike, the source gives them in different places. Non-standard residues stand in square brackets, D forms with d. Residues, ends and D or L forms follow the SMILES beside them. *: point of attachment. MeO(CH2CH2O)23CH2CH2CO = COCCOCCOCCOCCOCCOCCOCCOCCOCCOCCOCCOCCOCCOCCOCCOCCOCCOCCOCCOCCOCCOCCOCCOCCC(=O)*; dDab = NCC[C@@H](N)C(=O)O

What was measured:
Hemolytic activity = assay type: cell-based, human; conditions: 1% human erythrocytes (red blood cells), pH 7.4
Experimental: (§1) Hemoglobin release was determined spectrophotometrically at 570 nm. […] […] […] With the peptides used in this study the inventors used the HC30/MIC ratio value to calculate the therapeutic index.

human red blood cells = test: Hemolytic activity; assay type: cell-based
Experimental: as §1

[1] = test system: A. baumannii strains resistant to Polymyxin B and Colistin; assay type: cell-based
[2] = 50% hemolysis of human red blood cells after 18 hours at 37° C., read-out: HC50

Structure (SMILES) | HC50 at 18 h (Hemolytic activity; [2]) | HC50 (human red blood cells; 50% hemolysis of human red blood cells after 18 hours at 37° C.) [µM] | MIC ([1]; strain MB9941 (Table 9C)) [µM] | MIC ([1]; strain MB9949 (Table 9C)) [µM] | MIC ([1]; strain MB9951 (Table 9C)) [µM] | MIC ([1]; strain MB9952 (Table 9C)) [µM] | MIC ([1]; strain MB9953 (Table 9C)) [µM] | MIC ([1]; strain MB9955 (Table 9C)) [µM] | MIC ([1]; strain MB9963 (Table 9C)) [µM] | HC50 at 18 h (Hemolytic activity; human) | Hemolysis of human red blood cells, in words (human red blood cells; FIG. 10) | HC50 (human red blood cells) [µM]
COCCOCCOCCOCCOCCOCCOCCOCCOCCOCCOCCOCCOCCOCCOCCOCCOCCOCCOCCOCCOCCOCCOCCOCCC(=O)N[C@H](CCCCN)C(=O)N[C@H](CC(C)C)C(=O)N[C@H](CCN)C(=O)N[C@H](CO)C(=O)N[C@H](CC(C)C)C(=O)N[C@H](CC(C)C)C(=O)N[C@H](CCN)C(=O)N[C@@H](C(=O)N[C@H](CC(C)C)C(=O)N[C@H](CO)C(=O)N[C@H](CCN)C(=O)N[C@H](C)C(=O)N[C@H](CCCCN)C(=O)N[C@H](C)C(=O)N[C@H](C)C(=O)N[C@H](CCCCN)C(=O)N[C@H](CC(C)C)C(=O)N[C@H](CCN)C(=O)N[C@@H](C(=O)N[C@H](CC(C)C)C(=O)N[C@H](CC(C)C)C(=O)N[C@H](CCN)C(=O)N[C@H](C)C(=O)N[C@H](CC(C)C)C(=O)N[C@H](CO)C(=O)N[C@H](CCN)C(N)=O)[C@H](C)O)[C@H](C)O [Peptide D86PEG1, m-dPEG24-D86] ({MeO(CH2CH2O)23CH2CH2CO}-[dK][dL][dDab][dS][dL][dL][dDab][dT][dL][dS][dDab][dA][dK][dA][dA][dK][dL][dDab][dT][dL][dL][dDab][dA][dL][dS][dDab]-NH2) | 363 µg/mL and 137 µM | 136.7 | 1.1 (≈ 4.13 µg/mL) | 2.1 (≈ 7.88 µg/mL) | 4.1 (≈ 15.4 µg/mL) | 4.1 (≈ 15.4 µg/mL) | 8.3 (≈ 31.2 µg/mL) | 1.1 (≈ 4.13 µg/mL) | 4.1 (≈ 15.4 µg/mL) |  |  | 
CC(=O)N[C@H](CCCCN)C(=O)N[C@H](CC(C)C)C(=O)N[C@H](CN)C(=O)N[C@H](CO)C(=O)N[C@H](CC(C)C)C(=O)N[C@H](CC(C)C)C(=O)N[C@H](CN)C(=O)N[C@@H](C(=O)N[C@H](CC(C)C)C(=O)N[C@H](CO)C(=O)N[C@H](CN)C(=O)N[C@H](C)C(=O)N[C@H](CCCCN)C(=O)N[C@H](C)C(=O)N[C@H](C)C(=O)N[C@H](CCCCN)C(=O)N[C@H](CC(C)C)C(=O)N[C@H](CN)C(=O)N[C@@H](C(=O)N[C@H](CC(C)C)C(=O)N[C@H](CC(C)C)C(=O)N[C@H](CN)C(=O)N[C@H](C)C(=O)N[C@H](CC(C)C)C(=O)N[C@H](CO)C(=O)N[C@H](CN)C(N)=O)[C@H](C)O)[C@H](C)O [Peptide D105, Ac-KL(Dpr)SLL(Dpr)TLS(Dpr)AKAAKL(Dpr)TLL(Dpr)ALS(Dpr)-amide] |  |  | 0.8 (≈ 2.09 µg/mL) | 0.8 (≈ 2.09 µg/mL) | 3.0 (≈ 7.84 µg/mL) | 0.8 (≈ 2.09 µg/mL) | 3.0 (≈ 7.84 µg/mL) | 0.8 (≈ 2.09 µg/mL) | 1.5 (≈ 3.92 µg/mL) | > 3000 µg/mL and > 1.15 mM |  | 
CC(=O)N[C@H](CCCCN)C(=O)N[C@H](CC(C)C)C(=O)N[C@H](CCN)C(=O)N[C@H](CO)C(=O)N[C@H](CC(C)C)C(=O)N[C@H](CC(C)C)C(=O)N[C@H](CCN)C(=O)N[C@@H](C(=O)N[C@H](CC(C)C)C(=O)N[C@H](CO)C(=O)N[C@H](CCN)C(=O)N[C@H](C)C(=O)N[C@H](CCCCN)C(=O)N[C@H](C)C(=O)N[C@H](C)C(=O)N[C@H](CCCCN)C(=O)N[C@H](CC(C)C)C(=O)N[C@H](CCN)C(=O)N[C@@H](C(=O)N[C@H](CC(C)C)C(=O)N[C@H](CC(C)C)C(=O)N[C@H](CCN)C(=O)N[C@H](C)C(=O)N[C@H](CC(C)C)C(=O)N[C@H](CO)C(=O)N[C@H](CO)C(N)=O)[C@H](C)O)[C@H](C)O [Peptide D102, Ac-KL(Dbu)SLL(Dbu)TLS(Dbu)AKAAKL(Dbu)TLL(Dbu)ALSS-amide] (Ac-[dK][dL][dDab][dS][dL][dL][dDab][dT][dL][dS][dDab][dA][dK][dA][dA][dK][dL][dDab][dT][dL][dL][dDab][dA][dL][dS][dS]-NH2) | > 2000 µg/mL and > 708 µM |  |  |  |  |  |  |  |  |  | basically no hemolysis | 
CC(=O)N[C@H](CCCCN)C(=O)N[C@H](CC(C)C)C(=O)N[C@H](CCCCN)C(=O)N[C@H](CO)C(=O)N[C@H](CC(C)C)C(=O)N[C@H](CC(C)C)C(=O)N[C@H](CCCCN)C(=O)N[C@@H](C(=O)N[C@H](CC(C)C)C(=O)N[C@H](CO)C(=O)N[C@H](C)C(=O)N[C@H](C)C(=O)N[C@H](CCCCN)C(=O)N[C@H](CCCCN)C(=O)N[C@H](CCCCN)C(=O)N[C@H](CCCCN)C(=O)N[C@H](CC(C)C)C(=O)N[C@H](C)C(=O)N[C@@H](C(=O)N[C@H](CC(C)C)C(=O)N[C@H](CC(C)C)C(=O)N[C@H](CCCCN)C(=O)N[C@H](C)C(=O)N[C@H](CC(C)C)C(=O)N[C@H](CO)C(=O)N[C@H](CCCCN)C(N)=O)[C@H](C)O)[C@H](C)O [Peptide D88, Ac-KL(Lys)SLL(Lys)TLSAAK(Lys)(Lys)KLATLL(Lys)ALS(Lys)-amide] (Ac-[dK][dL][dK][dS][dL][dL][dK][dT][dL][dS][dA][dA][dK][dK][dK][dK][dL][dA][dT][dL][dL][dK][dA][dL][dS][dK]-NH2) |  |  | 0.7 (≈ 2.01 µg/mL) | 0.7 (≈ 2.01 µg/mL) | 0.3 (≈ 0.86 µg/mL) | 0.3 (≈ 0.86 µg/mL) | 0.3 (≈ 0.86 µg/mL) | 0.3 (≈ 0.86 µg/mL) | 0.3 (≈ 0.86 µg/mL) | 231 µg/mL and 80.6 µM |  | 80.6
